Laboratory results taken from PubChem BioAssay AID588620 (NMMLSC, 2011).
pEC50: −log10 of the molar value. Calls of active or inactive are those of the source.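 Rule for the calls: active = fitted half-maximal concentration below 30 µM for cell fluorescence in pump-free yeast, so likely self-fluorescent; inactive = the rest.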

test system: not listed separately; assay: concentration-dependent intrinsic compound fluorescence, S. cerevisiae AD/pABC3, flow cytometry, Cherry Pick1 hits, artefact control for antifungal efflux pump inhibitor project, dose response (AID 588620);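 note: red emission of unstained cells excited at 488 nm measured in PE-Texas Red channel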;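 for fluorescence response, % of control: cell median fluorescence as percent of DMSO wells so 100% equals vehicle baseline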; conditions: S. cerevisiae AD/pABC3 compound autofluorescence, flow cytometry; at 33.1 µM (top of the series)

| SMILES | fluorescence response, % of control |
| --- | --- |
| Cc1ccc(CC2CC(=O)N(Cc3ccco3)C2=O)cc1 (stereo not given) | 93.5% (inactive) |
| COc1ccc(-c2nc(C(N)=O)c3[nH]c(=O)n(-c4ccccc4OC)c3n2)c(OC)c1 | 74% (inactive) |
| O=C(COC(=O)c1c(Cl)cccc1Cl)NCC1CCCO1 (stereo not given) | 106% (inactive) |
| CCC(Sc1nc2cc(OC)c(OC)cc2c(=O)n1CCc1ccc(OC)c(OC)c1)C(=O)NCCOC (stereo not given) | 83.6% (inactive) |
| COc1cccc(-c2sc3ccc(OC)cc3c2-c2ccc(OCCN3CCOCC3)cc2)c1 | 92.4% (inactive) |
| CCCOc1ccc(/C=c2\sc3nc(-c4ccco4)nn3c2=O)cc1OCC | 95.1% (inactive) |
| CC1Cc2cc(S(=O)(=O)NCc3ccccc3)ccc2N1C(=O)C1CCC1 (stereo not given) | 89% (inactive) |
| COc1ccc(-c2nc3ccccc3c(=O)n2CCOc2cc(C)ccc2C)cc1 | 135% (inactive) |
| CC(C)=C1C2CCC1C1C(=O)N(c3nc(-c4ccc(C(C)C)cc4)c(C)s3)C(=O)C21 (stereo not given) | 111% (inactive) |
| C[C@@]12C(=O)Nc3ccc(F)cc3C(=O)N1[C@H]1c3cc(Cl)ccc3OC[C@@H]1[C@@H]2c1ccccc1 | 104% (inactive) |
| O=[N+]([O-])c1cnc2ccc3ccccc3c2c1 | 122% (inactive) |
| Cc1ccc(O)c(C(=O)c2cnc3c(c2)CN(CCC(C)C)C(=O)N3)c1 | 102% (inactive) |
| O=c1[nH]c(C2CCN(S(=O)(=O)c3ccccc3C(F)(F)F)CC2)nc2c1nnn2Cc1ccccc1 | 92.4% (inactive) |
| Cc1ccc(CN2C(=O)C(Cc3ccccc3)Nc3ncnc(N4CCN(c5ccccc5)CC4)c32)cc1 (stereo not given) | 111% (inactive) |
| Cc1ccc(-n2c(-c3ccc(Br)cc3)c[n+]3c2CCc2ccc4cccnc4c2-3)cc1 | 92.4% (inactive) |
| CCC(=O)N1CCN(c2ccc(Cl)cc2NC(=O)c2ccc3c(c2)OCCO3)CC1 | 99.8% (inactive) |
| COc1ccccc1CNS(=O)(=O)c1ccc2c(c1)CC(C)N2C(=O)C1CCC1 (stereo not given) | 85.7% (inactive) |
| O=C(C[n+]1cc(-c2ccc(Cl)c(Cl)c2)n2c1CCC2)N1c2ccccc2Sc2ccccc21 | 92.7% (inactive) |
| O=C1C(Cc2ccccc2)Nc2ncnc(N3CCN(c4ccccc4)CC3)c2N1Cc1ccccc1 (stereo not given) | 105% (inactive) |
| CCOC(=O)c1sc2nc3c(SCC(=O)O)cc(C(=O)c4ccccc4O)cn3c(=O)c2c1C | 132% (inactive) |
| COc1ccc(CCC(=O)NNC(=O)Cn2nc(C)cc2C)cc1 | 100% (inactive) |
| CC(C)n1cc(/C=N/NC(=O)COc2cccc3cccnc23)c2ccccc21 | 91.7% (inactive) |

| SMILES | fluorescence response, % of control |
| --- | --- |
| Cc1ccc(S(=O)(=O)N2CCOCC2)cc1NC(=O)COC(=O)CNC(=O)c1ccccc1 | 102% (inactive) |
| CC(=O)Nc1ccc(NC(=O)Cc2ccc(F)cc2)cc1 | 106% (inactive) |
| O=C(COC(=O)c1c2ccccc2cc2ccccc12)Nc1ncc(C(F)(F)F)cc1Cl | 96.4% (inactive) |
| O=c1[nH]c(C2CCN(S(=O)(=O)c3ccc4c(c3)OCCO4)CC2)nc2c1nnn2Cc1cccc(F)c1 | 172% (inactive) |
| CCN(CC)c1ccc(/C=C/c2cc(-c3ccccc3)c3ccccc3n2)cc1 | 406% (inactive) |
| CCCCSC1=N/C(=C/c2ccsc2)C(=O)N1c1ccccc1 | 95.7% (inactive) |
| Cc1ccc(CNC(=O)C(=O)NCC2OCCN2S(=O)(=O)c2ccc(Br)cc2)cc1 (stereo not given) | 88.1% (inactive) |
| COc1ccc2nccc(/C=C/c3ccnc4ccc(OC)cc34)c2c1 | 126% (inactive) |
| C[C@H]1CN([C@@H](C)CO)C(=O)c2cc(NC(=O)Nc3cccc4ccccc34)ccc2O[C@@H]1CN(C)Cc1ccc(-c2ccccc2)cc1 | 102% (inactive) |
| CC(C)(C)c1cc(C(c2cccnc2)N2CCN(CCO)CC2)cc(C(C)(C)C)c1O (stereo not given) | 78.8% (inactive) |
| CCCCCc1cc(=O)oc2c(C(CCN3CCCC(C)C3)c3ccc(N(C)C)cc3)c(OC)cc(OC)c12 (stereo not given) | 94.5% (inactive) |
| COc1cccc(-c2sc3ccc(OC)cc3c2-c2ccc(OCCN3CCCCC3)cc2)c1 | 102% (inactive) |
| O=C(O)c1nccnc1C(=O)N1CCN(c2ccccc2)CC1 | 121% (inactive) |
| Cc1cc(C(=O)NC2CC(C)(C)Cc3c2cnn3-c2ccc(F)cc2)no1 (stereo not given) | 98.7% (inactive) |
| COc1ccccc1-c1sc2ccccc2c1-c1ccc(OCCN2CCOCC2)cc1 | 99.3% (inactive) |
| Cc1cc(C)cc(-n2ncc3c2CCCC3NC(=O)c2cc(C)[nH]n2)c1 (stereo not given) | 96.3% (inactive) |
| O=C(/C=C/c1ccccc1Cl)NCCc1ccccc1 | 89.7% (inactive) |
| COc1ccc(C(=O)NC2CCCc3c2cnn3-c2cccc(C)c2C)c(OC)n1 (stereo not given) | 75.9% (inactive) |
| Cc1ccc(/C=c2\sc3nc(-c4cccs4)nn3c2=O)o1 | 118% (inactive) |
| COc1cc(CNC(C)(C)CO)cc(Br)c1OCc1ccc(Cl)cc1 | 130% (inactive) |
| COc1ccc2c(c1)C(=O)N1[C@H]3c4cc(Cl)ccc4OC[C@@H]3[C@H](c3ccccc3)[C@]1(C)C(=O)N2 | 98.5% (inactive) |

test system: S. cerevisiae AD/pABC3 compound autofluorescence, flow cytometry; assay: as above; conditions: not given

| SMILES | pEC50 |
| --- | --- |
| CCOc1ccc(NC(=O)CSc2nnc(Cc3cccn3C)n2-c2ccc(F)cc2)cc1 | 4.87 |
| O=[N+]([O-])c1ccc(N2N=C(c3ccco3)CC2c2ccccc2)cc1 (stereo not given) | 4.74 |
| C=CCn1c(=O)[nH]c2nc3cc(N=CN(C)C)c(C)cc3nc2c1=O | 5.29 |
| C[C@@]12C(=O)Nc3cc(F)c(F)cc3C(=O)N1[C@H]1c3cc(Cl)ccc3OC[C@@H]1[C@@H]2c1ccccc1 | 4.91 |
| Cc1ccc2nc(/C(C#N)=C/c3ccc(O)c(O)c3)[nH]c2c1 | 5.27 |
| Cc1ccc(/C=C2\CCC3=C2OC(N)=C(C#N)C3c2ccc(C)cc2)cc1 (stereo not given) | 5.04 |
| COc1ccccc1-c1nc(C(N)=O)c2[nH]c(=O)n(-c3cccc(C)c3)c2n1 | 4.96 |
| O=C1/C(=C/c2ccco2)Oc2c1ccc(O)c2CN1CCCCC1 | 5.22 |
| Cc1nc2ccccc2n1CCc1nc2c3ccccc3nc(SCC(=O)NCc3ccco3)n2n1 | 4.91 |
| Cc1nn(Cc2cccc(C(=O)NC34CC5CC(CC(C5)C3)C4)c2)c(C)c1Br | 5.35 |
| COc1cc2sc(-c3ccccc3OC)c(-c3ccc(OCCN4CCOCC4)cc3)c2cc1OC | 4.76 |
| COc1ccc(OC)c2c1C(=O)C(Cl)=C(Cl)C2=O | 6.31 |
